In paper PMC9481106, “Design, synthesis and biological evaluation of 2,4-pyrimidinediamine derivatives as ALK and HDACs dual inhibitors for the treatment of ALK addicted cancer” (Journal of Enzyme Inhibition and Medicinal Chemistry, 2022) one finds IC50 data, which are given here for one compound.

The target in one assay is HDAC1 (Homo sapiens, UniProt Q13547). Briefly: enzyme inhibition assay with fluorescent assay kit. The assay is classed as biochemical.
Assay [1] has as its target ALK^wt (anaplastic lymphoma kinase) (Homo sapiens, UniProt Q9UM73). Kind of assay: enzyme inhibition assay with fluorescent assay kit. The assay is classed as biochemical.

Sequence of HDAC1 (Q13547 whole entry): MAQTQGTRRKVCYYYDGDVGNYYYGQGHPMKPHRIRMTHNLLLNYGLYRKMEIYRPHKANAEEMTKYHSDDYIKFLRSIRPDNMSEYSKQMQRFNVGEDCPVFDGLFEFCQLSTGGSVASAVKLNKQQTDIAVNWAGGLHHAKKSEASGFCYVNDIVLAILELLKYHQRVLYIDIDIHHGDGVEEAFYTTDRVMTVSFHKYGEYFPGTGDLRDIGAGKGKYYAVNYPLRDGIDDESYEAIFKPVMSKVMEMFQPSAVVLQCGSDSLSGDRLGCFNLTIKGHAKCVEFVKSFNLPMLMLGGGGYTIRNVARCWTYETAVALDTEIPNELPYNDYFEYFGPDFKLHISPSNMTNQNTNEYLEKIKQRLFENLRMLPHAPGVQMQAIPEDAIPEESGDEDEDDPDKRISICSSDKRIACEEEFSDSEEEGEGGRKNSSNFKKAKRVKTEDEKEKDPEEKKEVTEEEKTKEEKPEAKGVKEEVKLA
Sequence of ALK^wt (anaplastic lymphoma kinase) (Q9UM73 19-1620): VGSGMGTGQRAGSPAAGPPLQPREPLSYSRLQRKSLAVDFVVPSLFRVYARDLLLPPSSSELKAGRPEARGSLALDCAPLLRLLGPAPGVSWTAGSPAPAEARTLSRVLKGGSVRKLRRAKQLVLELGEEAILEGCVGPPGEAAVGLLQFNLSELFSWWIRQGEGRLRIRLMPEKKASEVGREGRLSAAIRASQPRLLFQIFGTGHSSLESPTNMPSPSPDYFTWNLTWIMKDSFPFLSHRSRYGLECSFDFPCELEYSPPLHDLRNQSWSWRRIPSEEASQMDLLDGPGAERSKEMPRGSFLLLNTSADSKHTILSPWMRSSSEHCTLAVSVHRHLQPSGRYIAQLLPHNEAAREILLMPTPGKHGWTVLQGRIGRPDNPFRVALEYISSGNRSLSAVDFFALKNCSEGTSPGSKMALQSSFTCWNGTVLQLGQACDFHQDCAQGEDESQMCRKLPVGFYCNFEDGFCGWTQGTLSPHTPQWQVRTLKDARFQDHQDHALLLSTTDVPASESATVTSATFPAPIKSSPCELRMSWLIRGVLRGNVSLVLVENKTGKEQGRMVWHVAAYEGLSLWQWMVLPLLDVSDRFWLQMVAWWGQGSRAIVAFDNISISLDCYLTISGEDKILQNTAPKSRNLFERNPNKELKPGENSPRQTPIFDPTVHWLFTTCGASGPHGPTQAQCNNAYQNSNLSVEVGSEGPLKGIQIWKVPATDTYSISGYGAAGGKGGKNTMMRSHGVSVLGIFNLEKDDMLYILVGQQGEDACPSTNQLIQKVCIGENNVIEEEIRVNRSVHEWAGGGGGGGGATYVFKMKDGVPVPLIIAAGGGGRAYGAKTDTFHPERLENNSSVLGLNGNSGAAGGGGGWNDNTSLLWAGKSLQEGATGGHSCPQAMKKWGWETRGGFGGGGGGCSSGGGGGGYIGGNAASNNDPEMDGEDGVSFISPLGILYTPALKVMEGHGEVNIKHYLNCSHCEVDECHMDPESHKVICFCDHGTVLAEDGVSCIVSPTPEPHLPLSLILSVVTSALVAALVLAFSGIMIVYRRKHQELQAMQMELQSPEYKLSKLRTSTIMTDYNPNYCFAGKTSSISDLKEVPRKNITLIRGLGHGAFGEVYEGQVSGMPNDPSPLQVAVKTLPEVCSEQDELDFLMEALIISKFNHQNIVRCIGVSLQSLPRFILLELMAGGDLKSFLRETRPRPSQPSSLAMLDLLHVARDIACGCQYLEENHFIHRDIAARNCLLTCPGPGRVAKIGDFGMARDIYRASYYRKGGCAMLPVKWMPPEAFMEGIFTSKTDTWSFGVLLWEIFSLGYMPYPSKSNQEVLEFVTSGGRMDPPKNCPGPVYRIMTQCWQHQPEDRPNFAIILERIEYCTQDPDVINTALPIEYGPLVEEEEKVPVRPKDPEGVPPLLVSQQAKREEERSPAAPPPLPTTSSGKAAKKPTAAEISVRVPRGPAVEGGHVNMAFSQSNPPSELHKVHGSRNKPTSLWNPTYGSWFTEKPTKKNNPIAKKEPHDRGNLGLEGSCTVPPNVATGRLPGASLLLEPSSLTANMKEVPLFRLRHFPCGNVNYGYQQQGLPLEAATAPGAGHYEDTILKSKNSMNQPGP

The IC50 is the concentration that gives 50% inhibition. Low readings indicate inhibition by little substance, high ones a need for much substance. Turning to `CC(C)S(=O)(=O)c1ccccc1Nc1nc(Nc2ccc(C(=O)Nc3ccccc3N)cc2)ncc1Cl` [12a, N-(2-aminophenyl)-4-((5-chloro-4-((2-(isopropylsulfonyl)phenyl)amino)pyrimidin-2-yl)amino)benzamide], the IC50 was 1450 nM against HDAC1 and 9.5 nM in assay [1].
